Common to all, as to format: physicochemical
A short description of data set [1]: Thermodynamic stability / solvent competition among crystal forms. The settings on record: for thermodynamic status among anhydrate crystal forms: temperature below 50° C. Here is the method:
After filtration by a needle filter, the filtrate was transferred to 1.5 mL vial. To the vial was added 5 mg of Crystal Form V and VI and the resulting suspensions were shaken for a while at the target temperatures. After centrifugation, the obtained solid was dried at 40° C. by vacuum overnight and then examined by XRPD to identify changes among different crystal forms.
With different solvents at corresponding temperatures shown in the table below, Crystal Form VIII was dissolved until saturated respectively. After filtration by a needle filter, the filtrate was transferred to 1.5 mL vial. To the vial was added 5 mg of Crystal Form III, V and IX and the resulting suspensions were shaken for a while at the target temperatures. After centrifugation, the obtained solid was dried at 40° C. by vacuum overnight and then examined by XRPD to identify changes among different crystal forms.

Data set [2] can be described thus: Water activity study (competition of crystal forms). Here is the method:
Crystal Form VIII was dissolved in solvents with different water activity shown in the table below and then filtered by a needle filter to prepare a saturated solution. After the filtrate was transferred into a 1.5 mL vial, 2 mg of Crystal Form I, II, VIII, X and XI were added respectively and the resulting suspensions were shaken for a while at the target temperatures. After centrifugation, the solid obtained was air dried at ambient temperature (DMSO system was washed by MTBE) and then examined by XRPD to identify changes among different crystal forms.

The nature of data set [3]: Dynamic Vapor Sorption (DVS) hygroscopicity. The settings on record: for hygroscopicity classification: DVS; for hygroscopicity classification / mass increase (DVS): 25° C.; for change of crystal form after the DVS testing: after DVS cycle 0%-90%-0% RH; for mass increase (DVS): relative humidity from 0% to 80%. As to the method: About 10 mg of sample was transferred to a DVS sample pan and the weight change as the humidity of the environment at 25° C. changes was recorded. The parameters of […] were set as follows: • Equilibrium dm/dt: 0.01%/min: (minimum: 10 min; maximum: 180 min); • Drying: 0% RH, 120 min; • RH (%) gradients: 10%; • RH (%) cycle: 0%-90%-0%. • Definition on Hygroscopicity

Data set [4] in a line: Physical stability study of crystal forms (XRPD). Particulars: 25° C./60% RH and 40° C./75% RH (long-term and accelerated), 2 weeks. Here is the method:
About 10 mg of Crystal Forms II, V and VI were added into 1.5 mL vial respectively which were then placed at the conditions of 25° C./60% RH and 40° C./75% RH. The solid in the vials was examined by XRPD at the corresponding time points.

Data set [5] in a line: Relative humidity X-ray powder diffraction (RH-XRPD) of Crystal Form VIII. Here is the method: Based on the above data, Crystal Form VIII was most likely to be a hydrate. […] Therefore, Crystal Form VIII was further characterized by RH-XRPD to confirm the hydrate crystal Form and to have the knowledge of the crystal Form transformation with the different RH.
The parameters of XRPD used in the test were as follows: • Tube: Cu/K-Alpha (λ=1.54179Å); • Generator: Voltage: 40 KV; Current: 40 mA; • Scan Scope: 3-40 deg; • Scan Speed: 10 deg/min.
About 100 mg of compound was evenly distributed to form a layer in a sample holder and transferred to a RH control component in which the relative humidity was controlled and adjusted by the ratio of dry/wet N2 blown.

The nature of data set [6]: Long-term stability study of crystal form VIII. Particulars: for Water content / XRPD (crystal form): 25 ± 2° C./60 ± 5% RH. As to the method:
A long-term stability study has been carried out under condition of 25° C./60% RH for the crystal form VIII.

The text below walks through data of patent publication US12534454B2, “Crystal forms of 5-fluoro-1-(4-fluoro-3-(4-(pyrimidin-2-yl)piperazine-1-carbonyl)benzyl)quinazoline-2,4(1H,3H)-dione and preparation thereof” (IMPACT THERAPEUTICS (SHANGHAI), INC, priority 2020, dated 2026).

Entries after “also recorded” stand apart in the source; their conditions may differ.

Take `O=C(c1cc(Cn2c(=O)[nH]c(=O)c3c(F)cccc32)ccc1F)N1CCN(c2ncccn2)CC1` [Crystal Form V, 5-fluoro-1-(4-fluoro-3-(4-(pyrimidin-2-yl)piperazine-1-carbonyl)benzyl)quinazoline-2,4(1H,3H)-dione]: in data set [1] (anhydrous solvents, 25° C., 50° C. and 80° C.), the “relative stability in the anhydrous solvents” value was “more stable than Crystal Form VI”. For the same molecule, the “thermodynamic status among anhydrate crystal forms” value in data set [1] (anhydrous solvents) is “dominant”. The “crystal form change in the hydrous solvents” value in data set [1] was “changed to Crystal Form II”. In addition, the “crystal form change in a high water activity” value in data set [2] (Aw>0.3) is recorded as “changed to Crystal Form II”. In data set [3], the hygroscopicity classification entry is given as “slight hygroscopic”, the “change of crystal form after the DVS testing” value is reported as “no significant change” and the “mass increase (DVS)” value was “about 0.8%”. In addition, the “crystal form change within two weeks” value in data set [4] is on record as “no crystal form change; also recorded: not changed”.
Take `O=C(c1cc(Cn2c(=O)[nH]c(=O)c3c(F)cccc32)ccc1F)N1CCN(c2ncccn2)CC1` [Crystal Form III, 5-fluoro-1-(4-fluoro-3-(4-(pyrimidin-2-yl)piperazine-1-carbonyl)benzyl)quinazoline-2,4(1H,3H)-dione]: the “thermodynamic status among anhydrate crystal forms” value in data set [1] (anhydrous solvents) was “metastable”.
Consider `O=C(c1cc(Cn2c(=O)[nH]c(=O)c3c(F)cccc32)ccc1F)N1CCN(c2ncccn2)CC1` [Crystal Form II, 5-fluoro-1-(4-fluoro-3-(4-(pyrimidin-2-yl)piperazine-1-carbonyl)benzyl)quinazoline-2,4(1H,3H)-dione], for which the “crystal form change in a low water activity” value in data set [2] (Aw<0.3) is on record as “changed to Crystal Form V”. Moreover, in data set [3], the hygroscopicity classification result was “hygroscopic”. Further, the “crystal form change within two weeks” value in data set [4] is listed as “no crystal form change; also recorded: not changed”.
As for `O=C(c1cc(Cn2c(=O)[nH]c(=O)c3c(F)cccc32)ccc1F)N1CCN(c2ncccn2)CC1` [Crystal Form IX, 5-fluoro-1-(4-fluoro-3-(4-(pyrimidin-2-yl)piperazine-1-carbonyl)benzyl)quinazoline-2,4(1H,3H)-dione], the “thermodynamic status among anhydrate crystal forms” value in data set [1] (anhydrous solvents) is “metastable”.
In the case of `O=C(c1cc(Cn2c(=O)[nH]c(=O)c3c(F)cccc32)ccc1F)N1CCN(c2ncccn2)CC1` [Crystal Form VI, 5-fluoro-1-(4-fluoro-3-(4-(pyrimidin-2-yl)piperazine-1-carbonyl)benzyl)quinazoline-2,4(1H,3H)-dione], in data set [1] (anhydrous solvents), the “thermodynamic status among anhydrate crystal forms” value is “metastable”. Further, the “crystal form change in the hydrous solvents” value in data set [1] is “changed to Crystal Form II”. Moreover, in data set [3], the hygroscopicity classification result is listed as “slight hygroscopic”, the “change of crystal form after the DVS testing” value is “no significant change” and the “mass increase (DVS)” value was “about 0.5%”. Further, the “crystal form change within two weeks” value in data set [4] is given as “not changed”.
As to `O=C(c1cc(Cn2c(=O)[nH]c(=O)c3c(F)cccc32)ccc1F)N1CCN(c2ncccn2)CC1` [Crystal Form “VIII”, 5-fluoro-1-(4-fluoro-3-(4-(pyrimidin-2-yl)piperazine-1-carbonyl)benzyl)quinazoline-2,4(1H,3H)-dione], the “crystal form after moisture absorption” value in data set [5] (5° C./75% RH, ambient temperature/75% RH, or 40° C./75% RH) was “return to Crystal Form VIII”.
For the molecule `O.O.O=C(c1cc(Cn2c(=O)[nH]c(=O)c3c(F)cccc32)ccc1F)N1CCN(c2ncccn2)CC1` [Crystal Form VIII, 5-fluoro-1-(4-fluoro-3-(4-(pyrimidin-2-yl)piperazine-1-carbonyl)benzyl)quinazoline-2,4(1H,3H)-dione dihydrate], in data set [6] (25° C./60% RH, up to 24 months), the “change of water content in long-term stability” value was “no significant change”. The “crystal form change in long-term stability” value in data set [6] (25° C./60% RH, up to 24 months) is on record as “no crystal form change”. In addition, the “long-term stability (in words)” value in data set [6] (25° C./60% RH, up to 24 months) is “stable”. Further, the Water content is given as 7.8% in data set [6] (9 months); 7.7% in data set [6] (12 months); 7.6% in data set [6] (18 months); 7.4% in data set [6] (24 months); 7.7% in data set [6] (Initial). For the same molecule, the “XRPD (crystal form)” value in data set [6] (12 months), in data set [6] (24 months) and in data set [6] (Initial) was “Form VIII” in each case. In addition, the “Crystal Form (RH-XRPD), absorption process” value was “XII” in data set [5] (0% RH, equilibrium 2 hour); “XII” in data set [5] (10% RH, equilibrium 2 hour); “XII” in data set [5] (20% RH, equilibrium 2 hour); ““VIII”” in data set [5] (30% RH, equilibrium 2 hour); “VIII” in data set [5] (40% RH, equilibrium 2 hour); “VIII” in data set [5] (50% RH, equilibrium 2 hour). In addition, the “Crystal Form (RH-XRPD), absorption process” value is on record as “VIII” in data set [5] (60% RH, equilibrium 0.5 hour); “VIII” in data set [5] (70% RH, equilibrium 0.5 hour); “VIII” in data set [5] (80% RH, equilibrium 0.5 hour); “VIII” in data set [5] (90% RH, equilibrium 0.5 hour). In addition, the “Crystal Form (RH-XRPD), desorption process” value is on record as “XII” in data set [5] (0% RH, equilibrium 2 hour); “XII” in data set [5] (10% RH, equilibrium 2 hour); “XII” in data set [5] (20% RH, equilibrium 2 hour); “VIII” in data set [5] (30% RH, equilibrium 2 hour); “VIII” in data set [5] (40% RH, equilibrium 2 hour); “VIII” in data set [5] (50% RH, equilibrium 2 hour). Moreover, the “Crystal Form (RH-XRPD), desorption process” value in data set [5] (60% RH, equilibrium 0.5 hour) was “VIII”; in data set [5] (70% RH, equilibrium 0.5 hour), “VIII”; in data set [5] (80% RH, equilibrium 0.5 hour) it was “VIII”; in data set [5] (90% RH, equilibrium 0.5 hour), “VIII”. Besides, in data set [5] (RH-XRPD and DVS, below it water is lost and the crystal form changes), the “relative humidity at which the crystal form is stable” value is listed as “no less than 40 % RH”. Also, the “hygroscopicity (in words)” value in data set [3] is recorded as “high hygroscopicity”.
